Results taken from patent US20260365670A1, “EGFR INHIBITORS AND USES THEREOF” (DIZAL (JIANGSU) PHARMACEUTICAL CO., LTD., priority 2022, published 2026).
Like-named read-outs stand apart in the source and are kept apart here.

Legend:
EGFR Exon19Del = target: T1, EGFR Exon19Del (Homo sapiens, UniProt P00533, DEL746-750); test: Inhibition of EGFR Exon19Del biochemical enzymatic activity (HTRF); settings: EGFR Del19, 1 mM ATP, 1 h, room temperature, read-out: IC50 @Del19
T1 construct: purchased Carna Bio
Procedure, shortened: (§1)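 Enzyme preincubated with compound, then ATP (1 mM) and TK substrate-biotin (1 μM) added; 1 h RT; stopped with EDTA-containing detection mix; HTRF read (ex 320, em 615/665 nm); IC50 by 4-parameter logistic fit.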

[1] = target: T2, EGFR[T790M/C797S/d746-750] (Homo sapiens, UniProt P00533, C797S/DEL746-750/T790M); test: Inhibition of EGFR[T790M/C797S/d746-750] biochemical enzymatic activity (HTRF); settings: EGFR T790M-C797S-Del19, 1 mM ATP, 1 h, room temperature, read-out: IC50 (nM) @T790M - C797S - Del19
T2 construct: purchased Carna Bio
Procedure, shortened: as §1

EGFR Exon19Del/T790M = target: T3, EGFR Exon19Del/T790M (Homo sapiens, UniProt P00533, DEL746-750/T790M); test: Inhibition of EGFR Exon19Del/T790M biochemical enzymatic activity (HTRF); settings: EGFR Del19-T790M, 1 mM ATP, 1 h, room temperature, read-out: IC50 (nM) @Del19-T790M
T3 construct: purchased Carna Bio
Procedure, shortened: as §1

PC-9 = test: Cell proliferation assay, PC-9 cells (CellTiter-Glo, 72 hours); format: cell-based; settings: PC9 cells, CellTiter-Glo, read-out: PC9 GI50
Procedure, shortened: (§2)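 Growth over 72 h was quantified by CellTiter-Glo luminescence, normalised as (G3 − G0)/(DMSO G3 − G0), for PC-9 cells seeded at 500/well and EGFR-mutant Ba/F3 cells at 5000/well in RPMI1640. Compound concentration series added after overnight incubation; GI50 obtained from best-fit curves.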

EGFR[T790M/C797S/L858R] = target: T4, EGFR[T790M/C797S/L858R] (Homo sapiens, UniProt P00533, C797S/L858R/T790M); test: Inhibition of EGFR[T790M/C797S/L858R] biochemical enzymatic activity (HTRF); settings: EGFR T790M-C797S-L858R, 1 mM ATP, 1 h, room temperature, read-out: IC50 (nM) @T790M- C797S - L858R
T4 construct: purchased Carna Bio
Procedure, shortened: as §1

EGFR L858R = target: T5, EGFR L858R (Homo sapiens, UniProt P00533, L858R); test: Inhibition of EGFR L858R biochemical enzymatic activity (HTRF); settings: 1 mM ATP, 1 h, room temperature, read-out: IC50 (nM) @L858R
T5 construct: purchased Carna Bio
Procedure, shortened: as §1

EGFR (d746-750 C797S) = target: T6, EGFR (d746-750 C797S) (Homo sapiens, UniProt P00533, C797S/DEL746-750); test: Inhibition of EGFR (d746-750 C797S) biochemical enzymatic activity (HTRF); settings: EGFR Del19-C797S, 1 mM ATP, 1 h, room temperature, read-out: IC50 (nM) @Del19-C797S
T6 construct: purchased signalchem
Procedure, shortened: as §1

EGFR (C797S L858R) = target: T7, EGFR (C797S L858R) (Homo sapiens, UniProt P00533, C797S/L858R); test: Inhibition of EGFR (C797S L858R) biochemical enzymatic activity (HTRF); settings: EGFR L858-C797S, 1 mM ATP, 1 h, room temperature, read-out: IC50 (nM) @L858-C797S
T7 construct: purchased signalchem
Procedure, shortened: as §1

[2] = test system: Ba/F3 cells expressing EGFR mutations; test: Cell proliferation assay, Ba/F3 cells expressing EGFR mutations (CellTiter-Glo, 72 hours); format: cell-based; settings: CellTiter-Glo
Procedure, shortened: as §2

A-431 = test: Cell proliferation GI50, A-431 cells (Table 6); format: cell-based
EGFR L858R/T790M = target: T8, EGFR L858R/T790M (Homo sapiens, UniProt P00533, L858R/T790M); test: Inhibition of EGFR L858R/T790M biochemical enzymatic activity (HTRF); settings: EGFR L858R-T790M, 1 mM ATP, 1 h, room temperature, read-out: IC50 (nM) @L858R-T790M
T8 construct: purchased Carna Bio
Procedure, shortened: as §1

EGFR wild type = target: T9, EGFR wild type (Homo sapiens, UniProt P00533); test: Inhibition of EGFR wild type biochemical enzymatic activity (HTRF); settings: EGFR WT, 1 mM ATP, 1 h, room temperature, read-out: IC50 (nM) @WT
T9 construct: purchased Carna Bio
Procedure, shortened: as §1

[3] = BaF3 cells, EGFR DEL19-C797S, read-out: DEL19-C797S/BaF3 GI50
[4] = BaF3 cells, EGFR DEL19-T790-C797S, read-out: DEL19-T790-C797S/BaF3 GI50
[5] = BaF3 cells, EGFR L858R, read-out: L858R/BaF3 GI50
[6] = BaF3 cells, EGFR L858R-C797S, read-out: L858R-C797S/BaF3 GI50
[7] = BaF3 cells, EGFR L858R-T790-C797S, read-out: L858R-T790-C797S/BaF3 GI50
[8] = BaF3 cells, EGFR L858R-T790M, read-out: L858R-T790M/BaF3 GI50
[9] = EGFR DEL19-T790M, read-out: DEL19-T790M GI50
[10] = Mus musculus, BaF3, 72 h, BaF3 cells, EGFR DEL19-C797S, read-out: DEL19-C797S/BaF3 GI50
[11] = Mus musculus, BaF3, 72 h, BaF3 cells, EGFR DEL19-T790-C797S, read-out: DEL19-T790-C797S/BaF3 GI50
[12] = Mus musculus, BaF3, 72 h, BaF3 cells, EGFR L858R, read-out: L858R/BaF3 GI50
[13] = Mus musculus, BaF3, 72 h, BaF3 cells, EGFR L858R-C797S, read-out: L858R-C797S/BaF3 GI50
[14] = Mus musculus, BaF3, 72 h, BaF3 cells, EGFR L858R-T790-C797S, read-out: L858R-T790-C797S/BaF3 GI50
[15] = Mus musculus, BaF3, 72 h, BaF3 cells, EGFR L858R-T790M, read-out: L858R-T790M/BaF3 GI50
[16] = Mus musculus, BaF3, 72 h, EGFR DEL19-T790M, read-out: DEL19-T790M GI50
[17] = Homo sapiens, A-431, A-431 cells

T6 sequence (P00533 with tags, fused parts or gaps DEL746-750/C797S limits assumed): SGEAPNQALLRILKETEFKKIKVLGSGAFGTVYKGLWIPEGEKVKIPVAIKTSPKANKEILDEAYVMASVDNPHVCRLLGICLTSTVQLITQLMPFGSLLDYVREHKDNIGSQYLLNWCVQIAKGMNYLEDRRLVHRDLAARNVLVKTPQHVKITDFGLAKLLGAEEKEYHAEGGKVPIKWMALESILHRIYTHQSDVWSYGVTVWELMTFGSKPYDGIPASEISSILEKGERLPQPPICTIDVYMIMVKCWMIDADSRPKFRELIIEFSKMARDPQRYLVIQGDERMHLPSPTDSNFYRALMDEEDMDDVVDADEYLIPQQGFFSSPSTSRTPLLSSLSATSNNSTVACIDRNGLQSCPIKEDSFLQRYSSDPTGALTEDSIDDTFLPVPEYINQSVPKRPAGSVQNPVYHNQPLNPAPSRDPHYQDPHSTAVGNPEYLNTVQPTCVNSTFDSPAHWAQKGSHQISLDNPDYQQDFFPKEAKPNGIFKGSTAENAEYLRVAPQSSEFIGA
T2 sequence (P00533 with tags, fused parts or gaps DEL746-750/T790M/C797S limits assumed): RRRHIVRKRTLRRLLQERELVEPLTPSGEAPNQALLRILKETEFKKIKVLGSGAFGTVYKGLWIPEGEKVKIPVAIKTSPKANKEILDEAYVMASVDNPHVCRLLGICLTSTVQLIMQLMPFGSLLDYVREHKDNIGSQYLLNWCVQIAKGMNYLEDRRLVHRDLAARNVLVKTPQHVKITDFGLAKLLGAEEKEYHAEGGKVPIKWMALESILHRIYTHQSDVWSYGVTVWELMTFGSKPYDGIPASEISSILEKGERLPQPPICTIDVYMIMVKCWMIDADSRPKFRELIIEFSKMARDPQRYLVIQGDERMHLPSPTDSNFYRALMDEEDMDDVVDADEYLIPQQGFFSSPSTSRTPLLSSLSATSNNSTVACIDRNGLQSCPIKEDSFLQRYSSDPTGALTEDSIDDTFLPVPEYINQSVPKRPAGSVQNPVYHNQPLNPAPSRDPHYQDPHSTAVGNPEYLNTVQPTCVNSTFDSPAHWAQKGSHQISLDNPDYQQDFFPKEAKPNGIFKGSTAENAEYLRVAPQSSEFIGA
T7 sequence (P00533 25-1210 C797S/L858R): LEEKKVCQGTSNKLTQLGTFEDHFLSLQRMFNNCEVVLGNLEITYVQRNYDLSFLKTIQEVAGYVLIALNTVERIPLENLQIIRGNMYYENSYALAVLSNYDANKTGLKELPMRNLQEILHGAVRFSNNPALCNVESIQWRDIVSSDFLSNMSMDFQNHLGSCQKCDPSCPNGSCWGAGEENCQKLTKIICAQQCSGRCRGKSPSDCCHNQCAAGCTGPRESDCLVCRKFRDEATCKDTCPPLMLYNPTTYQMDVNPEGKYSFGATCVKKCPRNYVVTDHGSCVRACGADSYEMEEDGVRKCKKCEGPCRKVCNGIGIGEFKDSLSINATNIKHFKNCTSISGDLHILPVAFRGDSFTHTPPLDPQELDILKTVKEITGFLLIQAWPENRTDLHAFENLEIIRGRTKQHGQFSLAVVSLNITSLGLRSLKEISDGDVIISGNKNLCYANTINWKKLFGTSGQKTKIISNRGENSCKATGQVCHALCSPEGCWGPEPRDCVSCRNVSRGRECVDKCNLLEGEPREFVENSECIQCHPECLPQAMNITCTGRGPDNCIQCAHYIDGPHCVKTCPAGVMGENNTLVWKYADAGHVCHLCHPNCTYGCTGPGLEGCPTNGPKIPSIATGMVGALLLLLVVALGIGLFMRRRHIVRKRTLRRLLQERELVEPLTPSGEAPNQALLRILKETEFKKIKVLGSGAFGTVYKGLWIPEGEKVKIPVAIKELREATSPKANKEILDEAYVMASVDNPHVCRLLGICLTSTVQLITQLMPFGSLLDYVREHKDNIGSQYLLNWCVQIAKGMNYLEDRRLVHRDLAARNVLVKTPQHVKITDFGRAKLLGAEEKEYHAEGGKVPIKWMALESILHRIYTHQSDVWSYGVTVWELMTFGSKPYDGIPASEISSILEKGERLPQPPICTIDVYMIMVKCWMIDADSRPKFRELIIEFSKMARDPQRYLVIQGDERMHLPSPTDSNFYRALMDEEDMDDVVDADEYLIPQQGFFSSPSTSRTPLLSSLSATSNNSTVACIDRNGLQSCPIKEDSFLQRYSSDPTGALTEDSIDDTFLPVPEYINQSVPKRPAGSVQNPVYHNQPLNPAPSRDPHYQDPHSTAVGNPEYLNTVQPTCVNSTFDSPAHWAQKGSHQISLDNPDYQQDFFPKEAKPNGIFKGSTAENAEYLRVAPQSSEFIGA
T3 sequence (P00533 with tags, fused parts or gaps DEL746-750/T790M limits assumed): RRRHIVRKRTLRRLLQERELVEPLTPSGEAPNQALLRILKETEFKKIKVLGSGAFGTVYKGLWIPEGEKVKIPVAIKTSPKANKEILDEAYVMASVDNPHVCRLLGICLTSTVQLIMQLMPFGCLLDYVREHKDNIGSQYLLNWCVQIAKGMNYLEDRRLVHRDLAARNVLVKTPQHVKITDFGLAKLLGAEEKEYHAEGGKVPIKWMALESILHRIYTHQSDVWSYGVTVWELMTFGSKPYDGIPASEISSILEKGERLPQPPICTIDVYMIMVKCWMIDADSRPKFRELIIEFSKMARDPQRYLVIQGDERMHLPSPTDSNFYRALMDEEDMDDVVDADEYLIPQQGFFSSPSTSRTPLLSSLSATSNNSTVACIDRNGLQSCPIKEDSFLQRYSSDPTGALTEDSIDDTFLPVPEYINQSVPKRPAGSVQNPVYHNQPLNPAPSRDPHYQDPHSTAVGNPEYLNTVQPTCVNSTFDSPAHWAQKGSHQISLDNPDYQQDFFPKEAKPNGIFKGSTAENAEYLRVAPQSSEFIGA
T8 sequence (P00533 25-1210 T790M/L858R): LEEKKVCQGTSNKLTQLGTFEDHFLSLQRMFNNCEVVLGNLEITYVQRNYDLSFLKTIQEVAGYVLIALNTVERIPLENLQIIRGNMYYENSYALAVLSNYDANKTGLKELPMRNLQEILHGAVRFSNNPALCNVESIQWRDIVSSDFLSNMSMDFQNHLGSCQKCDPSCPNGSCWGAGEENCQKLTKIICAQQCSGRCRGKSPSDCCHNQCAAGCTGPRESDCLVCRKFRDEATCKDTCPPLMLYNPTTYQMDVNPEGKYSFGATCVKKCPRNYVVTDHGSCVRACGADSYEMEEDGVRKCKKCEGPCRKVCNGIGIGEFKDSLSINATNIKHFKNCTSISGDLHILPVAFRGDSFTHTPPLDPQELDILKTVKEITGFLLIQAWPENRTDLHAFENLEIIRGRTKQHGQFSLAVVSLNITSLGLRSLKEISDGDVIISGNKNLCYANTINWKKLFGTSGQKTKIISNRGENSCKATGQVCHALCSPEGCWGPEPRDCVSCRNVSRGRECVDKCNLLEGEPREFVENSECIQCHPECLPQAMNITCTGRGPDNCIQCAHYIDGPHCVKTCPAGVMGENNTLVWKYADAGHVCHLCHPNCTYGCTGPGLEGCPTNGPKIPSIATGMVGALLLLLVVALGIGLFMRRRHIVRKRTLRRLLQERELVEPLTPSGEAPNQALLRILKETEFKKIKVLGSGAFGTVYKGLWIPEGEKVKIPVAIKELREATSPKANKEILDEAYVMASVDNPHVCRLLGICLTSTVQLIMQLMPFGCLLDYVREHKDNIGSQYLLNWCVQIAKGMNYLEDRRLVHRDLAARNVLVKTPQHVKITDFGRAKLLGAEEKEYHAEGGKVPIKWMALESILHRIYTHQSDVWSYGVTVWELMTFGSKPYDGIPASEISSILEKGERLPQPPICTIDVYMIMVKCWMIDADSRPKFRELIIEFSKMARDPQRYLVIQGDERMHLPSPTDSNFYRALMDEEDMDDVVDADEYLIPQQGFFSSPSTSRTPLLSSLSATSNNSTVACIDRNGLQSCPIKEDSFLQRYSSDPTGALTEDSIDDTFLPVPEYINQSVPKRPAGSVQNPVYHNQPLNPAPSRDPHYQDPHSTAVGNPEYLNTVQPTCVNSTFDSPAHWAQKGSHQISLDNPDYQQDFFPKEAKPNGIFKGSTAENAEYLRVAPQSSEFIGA
T1 sequence (P00533 with tags, fused parts or gaps DEL746-750 limits assumed): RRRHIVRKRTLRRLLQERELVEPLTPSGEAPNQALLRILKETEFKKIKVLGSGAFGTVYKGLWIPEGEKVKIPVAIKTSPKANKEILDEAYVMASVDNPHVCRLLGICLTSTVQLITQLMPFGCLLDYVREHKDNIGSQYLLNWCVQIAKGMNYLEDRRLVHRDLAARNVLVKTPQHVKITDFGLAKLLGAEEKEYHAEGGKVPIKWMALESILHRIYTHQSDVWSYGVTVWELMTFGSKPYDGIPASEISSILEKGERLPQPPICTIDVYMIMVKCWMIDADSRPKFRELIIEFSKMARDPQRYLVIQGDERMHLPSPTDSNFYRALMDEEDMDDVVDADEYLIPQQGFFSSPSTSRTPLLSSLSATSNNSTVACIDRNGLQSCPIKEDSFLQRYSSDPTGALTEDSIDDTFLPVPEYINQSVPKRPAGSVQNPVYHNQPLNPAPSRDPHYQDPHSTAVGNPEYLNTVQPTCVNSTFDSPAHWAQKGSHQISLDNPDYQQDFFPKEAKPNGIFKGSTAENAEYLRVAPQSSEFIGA

SMILES	IC50 (EGFR Exon19Del)	IC50 [1]	IC50 (EGFR Exon19Del/T790M)	GI50 (PC-9)	IC50 (EGFR[T790M/C797S/L858R])	IC50 (EGFR L858R)	IC50 (EGFR (d746-750 C797S))	IC50 (EGFR (C797S L858R))	GI50 [2, 3]	GI50 [2, 4]	GI50 [2, 5]	GI50 [2, 6]	GI50 [2, 7]	GI50 [2, 8]	GI50 [2, 9]	GI50 (A-431; A-431 cells)	IC50 (EGFR L858R/T790M)	IC50 (EGFR wild type)	GI50 (PC-9; Homo sapiens, PC-9, 72 h)	GI50 [2, 10]	other results
Cn1ncc2c1OCCN1CC3CCC(C3)(C1)n1c(nc3ccc(N4CCC(N5CC(F)C5)C4)cc31)NC(=O)c1cc-2c(=O)n(C)c1 (single isomer, unassigned) [Example A94B2, 5-[3-(3-Fluoroazetidin-1-yl)pyrrolidin-1-yl]-15,21-dimethyl-23-oxa-2,9,11,15,20,21,26-heptaazaheptacyclo[24.4.1.1^{1,28}.1^{13,17}.0^{2,10}.0^{3,8}.0^{18,22}]tritriaconta-3,5,7,9,13,17(33),18(22),19-octaene-12,16-dione]	8.9 nM	5.2 nM	6.3 nM	30 nM	9.7 nM	45 nM	4.5 nM	30 nM	0.77 nM	8.5 nM	3.3 nM	7.2 nM	5.4 nM	14 nM	5 nM	1980 nM	9.7 nM	289 nM	–	–	–
Cn1ncc2c1OCCN1CCCC(C)(C1)n1c(nc3ccc(N4CCOCC4)cc31)NC(=O)c1cc-2c(=O)n(C)c1 (stereo not drawn) [Example A10, 1,15,21-trimethyl-5-(morpholin-4-yl)-23-oxa-2,9,11,15,20,21,26-heptaazahexacyclo[24.3.1.1^{13,17}.0^{2,10}.0^{3,8}.0^{18,22}]hentriaconta-3,5,7,9,13,17(31),18(22),19-octaene-12,16-dione]	189 nM	166 nM	164 nM	–	4400 nM	2150 nM	173 nM	1950 nM	–	–	–	–	–	–	–	–	2630 nM	> 5000 nM	128 nM	33 nM	GI50 [2, 11]: 368 nM; GI50 [2, 12]: 309 nM; GI50 [2, 13]: 291 nM; GI50 [2, 14]: 260 nM; GI50 [2, 15]: 219 nM; GI50 [2, 16]: 323 nM; GI50 (A-431; [17]): 5140 nM
Cn1ncc2c1OCCN1CC3CCC(C3)(C1)n1c(nc3ccccc31)NC(=O)c1cc-2c(=O)n(C)c1 (single isomer, unassigned) [Example A61A, 15,21-Dimethyl-23-oxa-2,9,11,15,20,21,26-heptaazaheptacyclo[24.4.1.1^{1,28}.1^{13,17}.0^{2,10}.0^{3,8}.0^{18,22}]tritriaconta-3,5,7,9,13,17(33),18(22),19-octaene-12,16-dione]	2180 nM	> 5000 nM	> 5000 nM	–	> 5000 nM	> 5000 nM	1660 nM	> 5000 nM	–	–	–	–	–	–	–	–	> 5000 nM	> 5000 nM	1910 nM	521 nM	GI50 [2, 11]: 688 nM; GI50 [2, 12]: 1370 nM; GI50 [2, 13]: 1740 nM; GI50 [2, 14]: 1910 nM; GI50 [2, 15]: 2660 nM; GI50 [2, 16]: 913 nM; GI50 (A-431; [17]): 5900 nM
Cn1ncc2c1OCCN1CC3CCC(C3)(C1)n1c(nc3ccc(N4CCC(N5CC(F)C5)CC4)cc31)NC(=O)c1cc-2c(=O)n(C)c1 (single isomer, unassigned) [Example A87B]	2.8 nM	8.6 nM	9.5 nM	25 nM	8.7 nM	9.3 nM	4.1 nM	8.9 nM	0.7 nM	4 nM	4.6 nM	7.9 nM	7.7 nM	13 nM	3.4 nM	5970 nM	8.8 nM	36 nM	–	–	–
Cn1ncc2c1OCCN1CC3CCC(C3)(C1)n1c(nc3ccc(N4CCN(C5CC5)CC4)cc31)NC(=O)c1cc-2c(=O)n(C)c1 (single isomer, unassigned) [Example A83A]	428 nM	> 5000 nM	> 5000 nM	766 nM	> 5000 nM	2020 nM	577 nM	2600 nM	176 nM	789 nM	993 nM	468 nM	1090 nM	1130 nM	585 nM	7760 nM	> 5000 nM	> 5000 nM	–	–	–
CN1CC2(C1)CN(c1ccc3nc4n(c3c1)C13CCC(CN(CCOc5c(cnn5C)-c5cc(cn(C)c5=O)C(=O)N4)C1)C3)C2 (single isomer, unassigned) [Example A92B]	1.5 nM	2.3 nM	2.6 nM	9.8 nM	2.2 nM	3.2 nM	1 nM	2.6 nM	0.5 nM	1.1 nM	0.82 nM	1.6 nM	0.94 nM	3 nM	1.2 nM	842 nM	2.3 nM	16 nM	–	–	–
